Paper PMC11605291 (Frontiers in Pharmacology, 2024)
Read-outs that look alike come from different tables or passages of the source.

How the values were obtained:
[1] = Safety and tolerability evaluation; settings: for serious adverse events or deaths: 6 healthy Chinese males
Experimental: The safety of the subjects was assessed by adverse events, laboratory test results, vital signs, and 12-lead electrocardiogram (ECG). AEs were recorded from the time of administration and serious adverse events (SAE) were recorded from the time that subjects signed the informed consent. Subjects with elevated aspartate aminotransferase (AST) and/or alanine aminotransferase (ALT) levels (≥3 × ULN) combined with elevated serum total bilirubin (≥2 × ULN) or clinical jaundice in the same blood sample should be recorded as a specific adverse event.

[2] = Plasma pharmacokinetics of amdizalisib (LC-MS/MS) after a single oral dose of [14C]amdizalisib suspension; assay type: in vivo, human; settings: for CL/F: amdizalisib in plasma, single oral 30 mg/100 µCi suspension, mean ± SD
Experimental: (§1) Six subjects were admitted to the clinical research center 1 day prior to dosing, with random urine and fecal samples collected as blank excretion controls. After fasting overnight for at least 10 h, a blank blood sample was collected after a regular breakfast (449 kcal, with ∼35% energy from fat) on Day 1. […] It is noteworthy that the medication administration duration for each subject was strictly kept within 10 min. Scheduled collection of urine, feces, and blood samples, and safety monitoring proceeded until completion.
(§2) Venous blood samples were collected within 0.5 h prior to administration and at 0.5, 1, 1.5, 2, 3, 4, 6, 8, 12, 24, 36, 48, 72, and 96 h after administration. About 8 mL of blood was collected at each time point in the anticoagulant collection tube containing K2-EDTA. The centrifuged plasma was used for non-radioactive and radioactive pharmacokinetic and biotransformation (metabolite) analyses. In addition, about 2 mL of venous blood was collected within 0.5 h before administration and at 1, 4, 8, 12, 24, and 48 h after administration for whole blood radioactivity analysis. Additional 10 mL of venous blood for each time point was collected at 1, 4, 8, 12, 24, and 48 h after administration, and the plasma was obtained by centrifugation for biotransformation (metabolites) analysis. Urine and fecal samples were collected until 144 h (4 subjects) or 192 h (2 subjects) after administration.
Chromatographic separation was achieved on an XBridge C18 column, maintained at 40°C, with a mobile phase consisting of 2 mM ammonium formate in water (A) and methanol (B). A gradient elution was employed at a flow rate of 0.6 mL/min. The autosampler was set to 5°C, with an injection volume of 5 μL. […] Each analytical run included calibration standards and quality control samples to ensure method accuracy and precision. The corrected total concentration data of labelled (^14C) and unlabeled (^12C) analytes were given directly by Analyst data processing software. The standard curve consists of 0.500, 1.00, 2.00, 10.0, 50.0, 200, 450, 500 ng/mL. The quality control (QC) sample concentrations were 0.5 (lower limit of quantification QC), 1.50 (lower QC), 20.0 (low to medium QC), 250 (medium QC), 400 (high QC) ng/mL, respectively.
Pharmacokinetic analysis was performed using Phoenix WinNonlin® software version 8.3. […] Non-compartmental model was used to estimate the main PK parameters. Descriptive statistics applied to parameters including maximum plasma concentration after administration (Cmax), the time to reach maximum plasma concentration after administration (Tmax), elimination rate constant (λz), area under the plasma concentration-time curve from the time 0 to the time of last quantifiable concentration (AUC0-t, obtained by the linear trapezoidal method), area under the plasma concentration-time curve from time 0 extrapolated to infinity (AUC0-∞, AUC0-∞ = AUC0-t + Ct/λ z ), half-life (t1/2, t1/2 = ln ([…])/λz), mean residence time (MRT, MRT = AUMC/AUC), apparent clearance (CL/F, CL/F = Dose/AUC0-∞), apparent volume of distribution based on terminal phase (Vz/F, Vz/F = Dose/(λz×AUC0-∞)).

[3] = Excretion of radioactivity in urine and feces (mass balance); assay type: in vivo, human
Experimental: as §1
The excreta sample collection ceased when total radioactivity from excreta surpassed 80% of the administered dose, or less than 1% of the dose for two consecutive intervals. Blood sample collection ceased when the radioactivity of plasma at 2 consecutive time points was lower than 3 times the radioactivity at 0 h before administration. Based on the interim results, sample collection concluded earlier than initially planned.
as §2
Radioactivity was measured using an oxidative combustion apparatus and liquid scintillation counter (LSC). After the whole blood sample was vortexed thoroughly, two portions (about 0.5 g each) were weighed into the combustion boat, and after complete combustion by oxidative combustion apparatus, [^14C]carbon dioxide generated from the combustion of the samples was captured by scintillation solution and measured by liquid scintillation counter. After plasma samples were fully vortexed, one portion (approximately 0.5 g) was weighed into a scintillation vial, mixed well with the scintillation solution, and measured using a liquid scintillation counter. When the radioactivity of the plasma sample after administration is below the LLOQ, additional samples can be added, up to a maximum of 1 g. After mixing the urine well, weighed one portion (about 1 g) into a scintillation bottle, then added scintillation solution to mix well, and use a liquid scintillation counter to measure the radioactivity. The feces were transferred to labelled containers with known empty weights and soaked in an appropriate amount of 50% aqueous isopropanol solution for about 2–4 h or for a certain period of time (e.g., overnight) at 1°C–9°C. Before homogenization, the solution was made up to a suitable dilution by the addition of an appropriate amount of 50% aqueous isopropanol, the total weight was weighed and recorded, and the homogenization was carried out using a tissue homogenizer. Two equal portions of the homogenate (approximately 0.3 g) were weighed into a combustion boat and fully combusted by an oxidative combustion apparatus, and the [^14C]carbon dioxide generated from the combustion of the samples was captured with a scintillation solution and measured using a liquid scintillation counter.
The combustion efficiency of the oxidative combustor was verified by performing a combustion recovery test using a^14C-containing standard solution of known radioactivity concentration prior to combustion of the sample. […]

[4] = set-up: method as in Cao W. et al., 2023; settings: 30 mg amdizalisib capsules, fed condition, Chinese healthy volunteers ref Cao W. et al., 2023; cited from earlier work

Compound: C[C@H](Nc1ncnc(N)c1C#N)c1cc2ncc(Cl)n2nc1-c1ccccc1 [Amdizalisib]
- subjects reporting TEAEs ([1]; 5 of 6 subjects, single oral 30 mg/100 µCi): 83.3%
- serious adverse events or deaths [1]: No serious adverse events or drug-related deaths occured
- serious adverse events or deaths ([1]; listed as amdizalisib): No subjects reported serious adverse events or adverse events leading to death
- severity of TEAEs ([1]; all TEAEs, considered study drug related): grade 1
- subjects reporting diarrhea as TEAE ([1]; four subjects): 66.7%
- number of TEAEs reported ([1]; throughout the study, 6 subjects): 11
- subjects reporting abnormal laboratory test results ([1]; two subjects, shortened ECG PR, elevated low-density lipoprotein, positive urine white blood cells): 33.3%
- CL/F [2]: 16.8 ± 4.44 L/h
- CL/F ([2]; listed as amdizalisib): 16.8 L/h
- concentration at 72 h ([2]; male, human, plasma, oral, 30 mg, below the lower quantifiable limit in 4 of 6 subjects, detectable in 2): < 0.5 ng/mL
- AUC(0-inf) ([2]; male, human, plasma, po, 30 mg): 1880 ± 478 ng·h/mL
- AUC(0-t) ([2]; male, human, plasma, po, 30 mg): 1870 ± 474 ng·h/mL
- Cmax ([2]; male, human, plasma, po, 30 mg): 244 ± 48.9 ng/mL
- half-life ([2]; male, human, plasma, po, 30 mg): 8.34 ± 2.43 h
- MRT last ([2]; male, human, plasma, po, 30 mg, read-out: MRT0-t): 9.65 ± 1.48 h
- Vd/F ([2]; male, human, plasma, po, 30 mg, read-out: Vz/F): 192 ± 28 L
- Aefeces, % of dose ([3]; Total (mean ± SD), 6 subjects, feces 0–144/192 h): 62.08 % of dose
- Aefeces, % of dose ([3]; Total (mean ± SD), 6 subjects, feces 0–144/192 h, listed as [^14C] Amdizalisib): 62.08 ± 3.00 % of dose
- Aeurine, % of dose ([3]; Total (mean ± SD), 6 subjects, urine 0–144/192 h): 37.15 % of dose
- Aeurine, % of dose ([3]; Total (mean ± SD), 6 subjects, urine 0–144/192 h, listed as [^14C] Amdizalisib): 37.15 ± 2.84 % of dose
- Aetotal, % of dose ([3]; Total (mean ± SD), 6 subjects, urine and feces 0–144/192 h, listed as [^14C] Amdizalisib): 99.23 ± 0.30 % of dose
- Aetotal, % of dose ([3]; Total (mean ± SD), 6 subjects, urine and feces 0–144/192 h, listed as [^14C]amdizalisib): 99.23 % of dose
- time within which completely excreted ([3]; single oral dose of [14C]amdizalisib suspension): ≤ 168 h
- Aefeces, % of dose ([3]; subject 1,001, feces 0–192 h): 58.49 % of dose
- Aeurine, % of dose ([3]; subject 1,001, urine 0–192 h): 40.40 % of dose
- Aetotal, % of dose ([3]; subject 1,001, urine and feces 0–192 h): 98.89 % of dose
- Aefeces, % of dose ([3]; subject 1,002, feces 0–192 h): 63.33 % of dose
- Aeurine, % of dose ([3]; subject 1,002, urine 0–192 h): 35.85 % of dose
- Aetotal, % of dose ([3]; subject 1,002, urine and feces 0–192 h): 99.18 % of dose
- Aefeces, % of dose ([3]; subject 1,003, feces 0–144 h): 64.48 % of dose
- Aeurine, % of dose ([3]; subject 1,003, urine 0–144 h): 35.12 % of dose
- Aetotal, % of dose ([3]; subject 1,003, urine and feces 0–144 h): 99.60 % of dose
- Aefeces, % of dose ([3]; subject 1,004, feces 0–144 h): 58.70 % of dose
- Aeurine, % of dose ([3]; subject 1,004, urine 0–144 h): 40.65 % of dose
- Aetotal, % of dose ([3]; subject 1,004, urine and feces 0–144 h): 99.35 % of dose
- Aefeces, % of dose ([3]; subject 1,005, feces 0–144 h): 61.77 % of dose
- Aeurine, % of dose ([3]; subject 1,005, urine 0–144 h): 37.11 % of dose
- Aetotal, % of dose ([3]; subject 1,005, urine and feces 0–144 h): 98.88 % of dose
- Aefeces, % of dose ([3]; subject 1,006, feces 0–144 h): 65.73 % of dose
- Aeurine, % of dose ([3]; subject 1,006, urine 0–144 h): 33.74 % of dose
- Aetotal, % of dose ([3]; subject 1,006, urine and feces 0–144 h): 99.47 % of dose
- average excretion of total radioactivity within 96 h after administration ([3]; urine plus feces): over 94 % of the administered dose
- excretion within 96 h as share of the total excretion from 0 h to 192 h ([3]; urine plus feces): 94.74%
- average excretion of total radioactivity within 96 h after administration ([3]; urine plus feces, listed as [^14C]amdizalisib): 94.01 % of the administered dose
- AUC0-∞ [4]: 1,574 h٠ng/mL
- Cmax [4]: 152 ng/mL
